# pEC50: −log10 of the molar value.
# What was measured:
# HIV-1 strain LAI = assay: Cellular anti-viral assay in MT4-LTR-EGFP cells, wild type HIV-1 strain LAI; type: cell-based; settings: Human immunodeficiency virus 1, 72 h; MT4-LTR-EGFP cells, three days incubation, GFP signal; average EC50 used where more than one run; read-out: Activity class for HIV-1-LAI test
# Protocol: (§1) The compounds were tested in a cellular assay using the MT4-LTR-EGFP cells for anti-viral activity. […] The cellular assay was performed according to the following procedure.
# (§2) HIV- or mock-infected MT4-LTR-EGFP cells were incubated for three days in the presence of various concentrations of the inhibitor. Upon infection, the GFP reporter is activated by the viral tat protein. At the end of the incubation period, the GFP signal was measured. In the virus control samples (in the absence of any inhibitor) the maximal fluorescent signal was obtained. The inhibitory activity of the compound was monitored on the virus-infected cells and was expressed as EC50 and EC90. These values represent the amount of the compound required to protect 50% and 90%, respectively, of the cells from virus infection. The toxicity of the compound was measured on the mock-infected cells and was expressed as CC50, which represents the concentration of compound required to inhibit the growth of the cells by 50%. The selectivity index (SI) (ratio CC50/EC50) is an indication of the selectivity of the anti-HIV activity of the inhibitor.
# HIV-1-MDR = assay: Cellular anti-viral assay in MT4-LTR-EGFP cells, multi-drug resistant HIV-1 virus; type: cell-based; settings: Human immunodeficiency virus 1, 72 h, read-out: Activity class for HIV-1-MDR test
# Protocol: as §1, §2
smiles,measurement,setting,value
O=C(NC1CCCCC1)c1ccc(C2=NN3C(C(=O)c4ccc(F)cc4)Oc4ccccc4C3C2)cc1 (stereo not drawn) [Compound 1],pEC50,HIV-1 strain LAI,5.00 to 6.00
same,pEC50,HIV-1-MDR,< 5.00
O=C(NCC1CCCCC1)c1ccc(C2=NN3C(C(=O)c4ccc(F)cc4)Oc4ccccc4C3C2)cc1 (stereo not drawn) [Compound 2],pEC50,HIV-1 strain LAI,< 5.00
same,pEC50,HIV-1-MDR,< 5.00
CN(C)CCCNC(=O)c1ccc(C2=NN3C(C(=O)c4ccc(F)cc4)Oc4ccccc4C3C2)cc1 (stereo not drawn) [Compound 3],pEC50,HIV-1 strain LAI,< 5.00
same,pEC50,HIV-1-MDR,< 5.00
O=C(NCc1ccccn1)c1ccc(C2=NN3C(C(=O)c4ccc(Br)cc4)Oc4ccccc4C3C2)cc1 (stereo not drawn) [Compound 4],pEC50,HIV-1 strain LAI,5.00 to 6.00
COc1ccc(CNC(=O)c2ccc(C3=NN4C(C(=O)c5ccc(Br)cc5)Oc5ccccc5C4C3)cc2)cc1 (stereo not drawn) [Compound 5],pEC50,HIV-1 strain LAI,> 6.00
same,pEC50,HIV-1-MDR,< 5.00
O=C(NC1CCCC1)c1ccc(C2=NN3C(C(=O)c4ccc(Br)cc4)Oc4ccccc4C3C2)cc1 (stereo not drawn) [Compound 6],pEC50,HIV-1 strain LAI,> 6.00
same,pEC50,HIV-1-MDR,< 5.00
O=C(NCCc1ccccn1)c1ccc(C2=NN3C(C(=O)c4ccc(Br)cc4)Oc4ccccc4C3C2)cc1 (stereo not drawn) [Compound 7],pEC50,HIV-1 strain LAI,5.00 to 6.00
same,pEC50,HIV-1-MDR,< 5.00
CN1CCN(C(=O)c2ccc(C3=NN4C(C(=O)c5ccc(Br)cc5)Oc5ccccc5C4C3)cc2)CC1 (stereo not drawn) [Compound 8],pEC50,HIV-1-MDR,< 5.00
CN(C)CCCNC(=O)c1ccc(C2=NN3C(C(=O)c4ccc(Br)cc4)Oc4ccccc4C3C2)cc1 (stereo not drawn) [Compound 9],pEC50,HIV-1 strain LAI,> 6.00
same,pEC50,HIV-1-MDR,< 5.00
O=C(NCc1cccc(F)c1)c1ccc(C2=NN3C(C(=O)c4ccc(F)cc4)Oc4ccccc4C3C2)cc1 (stereo not drawn) [Compound 10],pEC50,HIV-1 strain LAI,< 5.00
same,pEC50,HIV-1-MDR,< 5.00
O=C(c1ccc(F)cc1)C1Oc2ccccc2C2CC(c3ccc(C(=O)N4CCc5ccccc5C4)cc3)=NN12 (stereo not drawn) [Compound 11],pEC50,HIV-1 strain LAI,< 5.00
same,pEC50,HIV-1-MDR,< 5.00
O=C(NCC1CCCO1)c1ccc(C2=NN3C(C(=O)c4ccc(F)cc4)Oc4ccccc4C3C2)cc1 (stereo not drawn) [Compound 12],pEC50,HIV-1 strain LAI,5.00 to 6.00
same,pEC50,HIV-1-MDR,< 5.00
CN(C)CCNC(=O)c1ccc(C2=NN3C(C(=O)c4ccc(F)cc4)Oc4ccccc4C3C2)cc1 (stereo not drawn) [Compound 13],pEC50,HIV-1 strain LAI,5.00 to 6.00
same,pEC50,HIV-1-MDR,< 5.00
CC(C)(C)OC(=O)N1CCN(C(=O)c2ccc(C3=NN4C(C(=O)c5ccc(F)cc5)Oc5ccccc5C4C3)cc2)CC1 (stereo not drawn) [Compound 14],pEC50,HIV-1 strain LAI,< 5.00
same,pEC50,HIV-1-MDR,< 5.00
O=C(c1ccc(F)cc1)C1Oc2ccccc2C2CC(c3ccc(C(=O)N4CCN(Cc5ccccc5)CC4)cc3)=NN12 (stereo not drawn) [Compound 15],pEC50,HIV-1 strain LAI,< 5.00
same,pEC50,HIV-1-MDR,< 5.00
O=C(NCc1ccccn1)c1ccc(C2=NN3C(C(=O)c4ccc(F)cc4)Oc4ccccc4C3C2)cc1 (stereo not drawn) [Compound 16],pEC50,HIV-1 strain LAI,< 5.00
same,pEC50,HIV-1-MDR,< 5.00
O=C(c1ccc(F)cc1)C1Oc2ccccc2C2CC(c3ccc(C(=O)N4CCCCCC4)cc3)=NN12 (stereo not drawn) [Compound 17],pEC50,HIV-1 strain LAI,> 6.00
same,pEC50,HIV-1-MDR,< 5.00
O=C(NC1CCCC1)c1ccc(C2=NN3C(C(=O)c4ccc(F)cc4)Oc4ccccc4C3C2)cc1 (stereo not drawn) [Compound 18],pEC50,HIV-1 strain LAI,> 6.00
O=C(NCCc1ccccn1)c1ccc(C2=NN3C(C(=O)c4ccc(F)cc4)Oc4ccccc4C3C2)cc1 (stereo not drawn) [Compound 19],pEC50,HIV-1 strain LAI,5.00 to 6.00
same,pEC50,HIV-1-MDR,< 5.00
CN(C)CCCN(C)C(=O)c1ccc(C2=NN3C(C(=O)c4ccc(F)cc4)Oc4ccccc4C3C2)cc1 (stereo not drawn) [Compound 20],pEC50,HIV-1 strain LAI,5.00 to 6.00
same,pEC50,HIV-1-MDR,5.00 to 6.00
COc1ccc(CNC(=O)c2ccc(C3=NN4C(C(=O)c5ccc(F)cc5)Oc5ccccc5C4C3)cc2)cc1 (stereo not drawn) [Compound 21],pEC50,HIV-1 strain LAI,< 5.00
same,pEC50,HIV-1-MDR,< 5.00
CC(C)CC(C)NC(=O)c1ccc(C2=NN3C(C(=O)c4ccc(F)cc4)Oc4ccccc4C3C2)cc1 (stereo not drawn) [Compound 22],pEC50,HIV-1 strain LAI,> 6.00
same,pEC50,HIV-1-MDR,< 5.00
COc1ccccc1CNC(=O)c1ccc(C2=NN3C(C(=O)c4ccc(F)cc4)Oc4ccccc4C3C2)cc1 (stereo not drawn) [Compound 23],pEC50,HIV-1 strain LAI,< 5.00
same,pEC50,HIV-1-MDR,< 5.00
COc1cccc(CNC(=O)c2ccc(C3=NN4C(C(=O)c5ccc(F)cc5)Oc5ccccc5C4C3)cc2)c1 (stereo not drawn) [Compound 24],pEC50,HIV-1 strain LAI,5.00 to 6.00
same,pEC50,HIV-1-MDR,5.00 to 6.00
COc1ccc(OC)c(CNC(=O)c2ccc(C3=NN4C(C(=O)c5ccc(F)cc5)Oc5ccccc5C4C3)cc2)c1 (stereo not drawn) [Compound 25],pEC50,HIV-1 strain LAI,5.00 to 6.00
same,pEC50,HIV-1-MDR,5.00 to 6.00
COc1ccc(NC(=O)c2ccc(C3=NN4C(C(=O)c5ccc(F)cc5)Oc5ccccc5C4C3)cc2)cc1 (stereo not drawn) [Compound 26],pEC50,HIV-1 strain LAI,5.00 to 6.00
same,pEC50,HIV-1-MDR,5.00 to 6.00
CN(C)c1ccc(NC(=O)c2ccc(C3=NN4C(C(=O)c5ccc(F)cc5)Oc5ccccc5C4C3)cc2)cc1 (stereo not drawn) [Compound 27],pEC50,HIV-1 strain LAI,> 6.00
same,pEC50,HIV-1-MDR,> 6.00
